Reference: paper PMC11224111, “Optimizing the pharmacokinetics of an ^211At-labeled RGD peptide with an albumin-binding moiety via the administration of an albumin-binding inhibitor” (European Journal of Nuclear Medicine and Molecular Imaging, 2024)

System: U-87 MG tumor-bearing mice
Experiment: Biodistribution in U-87 MG tumor-bearing mice with IPBA
Assay type: in vivo
Conditions: IPBA 10 eq at 1 h postinjection
Method: To prepare tumor-bearing mice, 5 × 10^6 of U-87 MG cells were subcutaneously inoculated into the right shoulder of 4-week-old female BALB/c nude mice (13–15 g, Japan SLC, Inc.) as previously reported. At approximately 10-day postinoculation of U-87 MG cells, they were used for each experiment after tumor size reached 0.3–0.5 cm^3.
At 1-h postinjection of [^211At]1 (37 kBq) and [^125I]2 (37 kBq), IPBA (1.9 mg, 6.1 µmol) was administered at 10 molar equivalent of blood albumin. Mice were sacrificed at 65-, 70-min, 2-, 4-, 12-, and 24-h postinjection of [^211At]1 and [^125I]2. Tissues of interest were removed and weighed, and radioactivity counts of ^125I and ^211At were determined with an auto well gamma counter (ARC-7010; Hitachi Medical, Ltd., Tokyo, Japan) and corrected for background radiation. To determine the radioactivity excreted from the body for 24 h, mice were housed in metabolic cages (Metabolica, Sugiyama-Gen Co., Ltd., Tokyo, Japan).

How did the “Radioactivity, Blood” value (65 min after administration) turn out when “Ga-DOTA-K([^125I]IPBA)-c(RGDfK) [[^125I]2]” was run?
The value was 11.19 (0.16)^ ** % injected activity per gram.

And the “Radioactivity, Bone” value (65 min after administration)?
The value was 4.94 (1.52) % injected activity per gram.

What about the “Radioactivity, Brain” value (65 min after administration) of the same substance?
Its value is 0.31 (0.02) % injected activity per gram.

What about the “Radioactivity, Heart” value (65 min after administration) of the same substance?
Its value is 4.77 (0.10) % injected activity per gram.

What about the “Radioactivity, Kidney” value (65 min after administration) of the same substance?
Its value is 17.52 (1.13)^ * % injected activity per gram.

What about the “Radioactivity, L. intestine” value (65 min after administration) of the same substance?
The value was 3.10 (0.11) % injected activity per gram.

What about the “Radioactivity, Liver” value (65 min after administration) of the same substance?
The value was 5.29 (0.52)^ * % injected activity per gram.

And the “Radioactivity, Lung” value (65 min after administration)?
The value was 10.10 (0.52)^ ** % injected activity per gram.

What about the “Radioactivity, Muscle” value (65 min after administration) of the same substance?
The value was 2.62 (0.24) % injected activity per gram.

What about the “Radioactivity, Neck” value (65 min after administration) of the same substance?
The value was 0.05 (0.01)^ * % injected activity.

What about the “Radioactivity, Pancreas” value (65 min after administration) of the same substance?
Its value is 2.66 (0.10) % injected activity per gram.

What about the “Radioactivity, S. intestine” value (65 min after administration) of the same substance?
The value was 4.93 (0.21)^ * % injected activity per gram.

And the “Radioactivity, Spleen” value (65 min after administration)?
The value was 3.95 (0.26) % injected activity per gram.

What about the “Radioactivity, Stomach” value (65 min after administration) of the same substance?
Its value is 1.33 (0.31) % injected activity.

What about the “Radioactivity, Tumor” value (65 min after administration) of the same substance?
Its value is 11.58 (0.32)^ * % injected activity per gram.

What about the “Radioactivity, Blood” value (70 min after administration) of the same substance?
Its value is 7.91 (0.45)^ *** % injected activity per gram.

What about the “Radioactivity, Bone” value (70 min after administration) of the same substance?
Its value is 2.30 (0.36) % injected activity per gram.

What about the “Radioactivity, Brain” value (70 min after administration) of the same substance?
The value was 0.24 (0.04) % injected activity per gram.

What about the “Radioactivity, Heart” value (70 min after administration) of the same substance?
Its value is 3.25 (0.25)^ ** % injected activity per gram.

What about the “Radioactivity, Kidney” value (70 min after administration) of the same substance?
The value was 11.87 (1.35)^ *** % injected activity per gram.

What about the “Radioactivity, L. intestine” value (70 min after administration) of the same substance?
The value was 2.29 (0.24) % injected activity per gram.

What about the “Radioactivity, Liver” value (70 min after administration) of the same substance?
Its value is 3.64 (0.49)^ * % injected activity per gram.

What about the “Radioactivity, Lung” value (70 min after administration) of the same substance?
Its value is 6.75 (0.74)^ ** % injected activity per gram.

And the “Radioactivity, Muscle” value (70 min after administration)?
The value was 1.53 (0.18) % injected activity per gram.

What about the “Radioactivity, Neck” value (70 min after administration) of the same substance?
The value was 0.06 (0.01) % injected activity.

And the “Radioactivity, Pancreas” value (70 min after administration)?
The value was 1.82 (0.14)^ * % injected activity per gram.

What about the “Radioactivity, S. intestine” value (70 min after administration) of the same substance?
Its value is 3.77 (0.37)^ ** % injected activity per gram.

And the “Radioactivity, Spleen” value (70 min after administration)?
The value was 2.83 (0.36) % injected activity per gram.

And the “Radioactivity, Stomach” value (70 min after administration)?
The value was 0.78 (0.15) % injected activity.

And the “Radioactivity, Tumor” value (70 min after administration)?
Its value is 11.24 (1.19)^ ** % injected activity per gram.

What about the “Radioactivity, Blood” value (2 h after administration) of the same substance?
Its value is 5.69 (0.44)^ *** % injected activity per gram.

What about the “Radioactivity, Bone” value (2 h after administration) of the same substance?
Its value is 2.73 (0.47) % injected activity per gram.

And the “Radioactivity, Brain” value (2 h after administration)?
Its value is 0.24 (0.02) % injected activity per gram.

What about the “Radioactivity, Heart” value (2 h after administration) of the same substance?
Its value is 2.24 (0.23)^ ** % injected activity per gram.

What about the “Radioactivity, Kidney” value (2 h after administration) of the same substance?
Its value is 8.39 (0.51) % injected activity per gram.

And the “Radioactivity, L. intestine” value (2 h after administration)?
Its value is 2.48 (1.12) % injected activity per gram.

What about the “Radioactivity, Liver” value (2 h after administration) of the same substance?
The value was 2.31 (0.17)^ * % injected activity per gram.

What about the “Radioactivity, Lung” value (2 h after administration) of the same substance?
Its value is 4.74 (0.12)^ * % injected activity per gram.

What about the “Radioactivity, Muscle” value (2 h after administration) of the same substance?
Its value is 1.73 (0.60)^ * % injected activity per gram.

What about the “Radioactivity, Neck” value (2 h after administration) of the same substance?
Its value is 0.08 (0.04) % injected activity.

And the “Radioactivity, Pancreas” value (2 h after administration)?
Its value is 1.68 (0.36) % injected activity per gram.

What about the “Radioactivity, S. intestine” value (2 h after administration) of the same substance?
The value was 2.41 (0.71) % injected activity per gram.

What about the “Radioactivity, Spleen” value (2 h after administration) of the same substance?
Its value is 2.33 (0.14) % injected activity per gram.

What about the “Radioactivity, Stomach” value (2 h after administration) of the same substance?
The value was 0.77 (0.08) % injected activity.

And the “Radioactivity, Tumor” value (2 h after administration)?
The value was 14.36 (1.54)^ ** % injected activity per gram.

And the “Radioactivity, Blood” value (4 h after administration)?
Its value is 1.71 (0.12)^ ** % injected activity per gram.

What about the “Radioactivity, Bone” value (4 h after administration) of the same substance?
Its value is 1.46 (0.16) % injected activity per gram.

And the “Radioactivity, Brain” value (4 h after administration)?
Its value is 0.18 (0.01) % injected activity per gram.

And the “Radioactivity, Heart” value (4 h after administration)?
Its value is 1.22 (0.12) % injected activity per gram.

And the “Radioactivity, Kidney” value (4 h after administration)?
The value was 5.00 (0.36)^ ** % injected activity per gram.

And the “Radioactivity, L. intestine” value (4 h after administration)?
The value was 4.61 (1.33)^ ** % injected activity per gram.

What about the “Radioactivity, Liver” value (4 h after administration) of the same substance?
The value was 1.32 (0.06) % injected activity per gram.

And the “Radioactivity, Lung” value (4 h after administration)?
Its value is 2.31 (0.06)^ *** % injected activity per gram.

And the “Radioactivity, Muscle” value (4 h after administration)?
The value was 0.52 (0.05)^ * % injected activity per gram.

What about the “Radioactivity, Neck” value (4 h after administration) of the same substance?
The value was 0.05 (0.04) % injected activity.

What about the “Radioactivity, Pancreas” value (4 h after administration) of the same substance?
The value was 0.72 (0.15) % injected activity per gram.

What about the “Radioactivity, S. intestine” value (4 h after administration) of the same substance?
Its value is 3.09 (0.79) % injected activity per gram.

What about the “Radioactivity, Spleen” value (4 h after administration) of the same substance?
Its value is 1.83 (0.10)^ * % injected activity per gram.

What about the “Radioactivity, Stomach” value (4 h after administration) of the same substance?
The value was 0.65 (0.09) % injected activity.

What about the “Radioactivity, Tumor” value (4 h after administration) of the same substance?
The value was 12.42 (0.89) % injected activity per gram.

And the “Radioactivity, Blood” value (12 h after administration)?
Its value is 1.65 (0.20)^ *** % injected activity per gram.

What about the “Radioactivity, Bone” value (12 h after administration) of the same substance?
The value was 0.72 (0.09)^ * % injected activity per gram.

What about the “Radioactivity, Brain” value (12 h after administration) of the same substance?
Its value is 0.07 (0.01)^ ** % injected activity per gram.

And the “Radioactivity, Heart” value (12 h after administration)?
Its value is 1.02 (0.07)^ ** % injected activity per gram.

And the “Radioactivity, Kidney” value (12 h after administration)?
The value was 2.71 (0.17)^ *** % injected activity per gram.

And the “Radioactivity, L. intestine” value (12 h after administration)?
Its value is 0.75 (0.05)^ *** % injected activity per gram.

And the “Radioactivity, Liver” value (12 h after administration)?
Its value is 0.70 (0.08)^ *** % injected activity per gram.

And the “Radioactivity, Lung” value (12 h after administration)?
The value was 2.07 (0.11)^ *** % injected activity per gram.

What about the “Radioactivity, Muscle” value (12 h after administration) of the same substance?
The value was 0.37 (0.01)^ *** % injected activity per gram.

And the “Radioactivity, Neck” value (12 h after administration)?
Its value is 0.06 (0.02)^ * % injected activity.

And the “Radioactivity, Pancreas” value (12 h after administration)?
The value was 0.50 (0.02)^ ** % injected activity per gram.

And the “Radioactivity, S. intestine” value (12 h after administration)?
The value was 0.68 (0.10)^ *** % injected activity per gram.

What about the “Radioactivity, Spleen” value (12 h after administration) of the same substance?
Its value is 1.03 (0.05)^ ** % injected activity per gram.

What about the “Radioactivity, Stomach” value (12 h after administration) of the same substance?
The value was 0.39 (0.02)^ ** % injected activity.

What about the “Radioactivity, Tumor” value (12 h after administration) of the same substance?
Its value is 7.08 (0.74)^ ** % injected activity per gram.

What about the “Radioactivity, Blood” value (24 h after administration) of the same substance?
Its value is 1.55 (0.17)^ * % injected activity per gram.

What about the “Radioactivity, Bone” value (24 h after administration) of the same substance?
The value was 0.48 (0.04) % injected activity per gram.

And the “Radioactivity, Brain” value (24 h after administration)?
The value was 0.05 (0.01) % injected activity per gram.

And the “Radioactivity, Heart” value (24 h after administration)?
Its value is 0.92 (0.58) % injected activity per gram.

And the “Radioactivity, Kidney” value (24 h after administration)?
Its value is 1.67 (0.24) % injected activity per gram.

And the “Radioactivity, L. intestine” value (24 h after administration)?
Its value is 0.38 (0.22) % injected activity per gram.

And the “Radioactivity, Liver” value (24 h after administration)?
Its value is 0.56 (0.10)^ * % injected activity per gram.

What about the “Radioactivity, Lung” value (24 h after administration) of the same substance?
The value was 1.58 (0.42) % injected activity per gram.

What about the “Radioactivity, Muscle” value (24 h after administration) of the same substance?
The value was 0.26 (0.02) % injected activity per gram.

And the “Radioactivity, Neck” value (24 h after administration)?
The value was 0.03 (0.00) % injected activity.

What about the “Radioactivity, Pancreas” value (24 h after administration) of the same substance?
Its value is 0.27 (0.05) % injected activity per gram.

And the “Radioactivity, S. intestine” value (24 h after administration)?
Its value is 0.26 (0.11) % injected activity per gram.

What about the “Radioactivity, Spleen” value (24 h after administration) of the same substance?
The value was 0.72 (0.16)^ * % injected activity per gram.

What about the “Radioactivity, Stomach” value (24 h after administration) of the same substance?
Its value is 0.20 (0.04)^ * % injected activity.

What about the “Radioactivity, Tumor” value (24 h after administration) of the same substance?
The value was 5.51 (0.05)^ * % injected activity per gram.

What about the “Radioactivity excreted, Feces” value (until 24 h postinjection) of the same substance?
Its value is 8.40 (3.14) % injected activity.

And the “Radioactivity excreted, Urine” value (until 24 h postinjection)?
The value was 56.09 (4.93)^ ** % injected activity.
